Like-named read-outs stand apart in the source and are kept apart here.
How the values were obtained:
[1] = target: mGluR2 (Homo sapiens, UniProt Q14416); conditions: read-out: IC50 against mGluR2; cited from earlier work
[2] = target: mGluR3 (Homo sapiens, UniProt Q14832); conditions: read-out: IC50 against mGluR3; cited from earlier work
[3] = test system: Group I or Group III receptors; conditions: at sub-mM concentrations; cited from earlier work
[4] = test system: KA, AMPA, and NMDA iGlu receptors; conditions: cited from earlier work
[5] = test system: mGlu7 and mGlu8; conditions: at higher concentrations (e.g., above 1 μM); cited from earlier work
[6] = target: human mGlu2 receptors (Homo sapiens, UniProt Q14416); conditions: in vitro; low nanomolar range; read-out: EC50 against human mGlu2 receptors; cited from earlier work
human mGlu2 receptors, sequence (Q14416 19-872): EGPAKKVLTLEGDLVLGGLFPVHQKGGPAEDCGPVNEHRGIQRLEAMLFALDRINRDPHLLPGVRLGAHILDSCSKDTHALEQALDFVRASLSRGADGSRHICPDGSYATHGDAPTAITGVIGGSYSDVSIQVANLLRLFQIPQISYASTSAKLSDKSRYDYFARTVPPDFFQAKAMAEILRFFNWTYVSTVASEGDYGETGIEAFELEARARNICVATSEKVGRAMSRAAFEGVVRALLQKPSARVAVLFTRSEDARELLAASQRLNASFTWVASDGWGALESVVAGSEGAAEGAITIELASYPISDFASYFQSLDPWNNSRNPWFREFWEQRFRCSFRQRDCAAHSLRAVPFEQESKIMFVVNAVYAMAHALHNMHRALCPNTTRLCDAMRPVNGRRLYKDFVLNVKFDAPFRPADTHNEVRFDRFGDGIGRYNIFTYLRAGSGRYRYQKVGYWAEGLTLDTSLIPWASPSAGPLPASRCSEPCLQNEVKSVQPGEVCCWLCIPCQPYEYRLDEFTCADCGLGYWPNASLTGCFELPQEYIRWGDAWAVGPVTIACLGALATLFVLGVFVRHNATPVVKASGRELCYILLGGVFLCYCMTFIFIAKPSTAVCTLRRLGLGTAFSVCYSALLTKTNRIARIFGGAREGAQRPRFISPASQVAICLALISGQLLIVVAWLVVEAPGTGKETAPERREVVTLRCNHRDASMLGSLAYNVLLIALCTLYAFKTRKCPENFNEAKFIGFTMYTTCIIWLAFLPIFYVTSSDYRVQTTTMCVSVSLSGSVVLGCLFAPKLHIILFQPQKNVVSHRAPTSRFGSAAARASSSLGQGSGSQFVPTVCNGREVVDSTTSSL

[7] = target: human mGlu3 receptors (Homo sapiens, UniProt Q14832); conditions: in vitro; low nanomolar range; read-out: EC50 against human mGlu3 receptors; cited from earlier work
human mGlu3 receptors, sequence (Q14832 23-879): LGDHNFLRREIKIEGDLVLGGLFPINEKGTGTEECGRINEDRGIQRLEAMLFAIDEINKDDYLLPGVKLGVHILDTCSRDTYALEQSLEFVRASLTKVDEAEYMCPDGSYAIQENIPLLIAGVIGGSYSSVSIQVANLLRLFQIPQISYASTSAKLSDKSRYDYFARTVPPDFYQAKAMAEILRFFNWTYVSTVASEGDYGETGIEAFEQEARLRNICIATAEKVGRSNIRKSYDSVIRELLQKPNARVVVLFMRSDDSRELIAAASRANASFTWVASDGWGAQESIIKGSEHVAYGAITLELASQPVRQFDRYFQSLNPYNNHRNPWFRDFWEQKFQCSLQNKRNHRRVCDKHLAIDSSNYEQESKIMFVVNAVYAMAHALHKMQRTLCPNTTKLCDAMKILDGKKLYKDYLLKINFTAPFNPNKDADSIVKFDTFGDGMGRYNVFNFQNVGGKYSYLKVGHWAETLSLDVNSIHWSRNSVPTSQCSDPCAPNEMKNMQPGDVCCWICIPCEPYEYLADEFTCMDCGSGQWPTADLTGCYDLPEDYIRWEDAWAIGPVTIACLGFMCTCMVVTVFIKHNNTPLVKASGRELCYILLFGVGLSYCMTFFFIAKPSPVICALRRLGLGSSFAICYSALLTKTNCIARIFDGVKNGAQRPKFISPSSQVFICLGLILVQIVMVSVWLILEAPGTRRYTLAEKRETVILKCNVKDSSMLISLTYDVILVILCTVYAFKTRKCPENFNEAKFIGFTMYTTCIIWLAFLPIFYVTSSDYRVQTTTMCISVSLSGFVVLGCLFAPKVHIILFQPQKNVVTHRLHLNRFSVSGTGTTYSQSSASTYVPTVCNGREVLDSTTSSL

[8] = test system: human neural stem cells (hNSCs); assay: Neuronal differentiation of human neural stem cells (TUJ-1 antibody staining); type: cell-based; conditions: for EC50: Homo sapiens, Neural stem cell, read-out: EC50 for neuronal differentiation; for effect on neuronal differentiation: dose response
Description: (§1) Mitogen-free test media with a positive control for neuronal differentiation was used along with basal media without growth factors as a negative control.
as §1, §1, §1, §1
(§2) Human neural stem cells (hNSCs) were isolated and grown in monolayer culture, plated, treated with varying concentrations of benazepril (test compound), and stained with TUJ-1 antibody, as described above. Mitogen-free test media with a positive control for neuronal differentiation was used along with basal media without growth factors as a negative control.
as §2, with “trandolapril” for “benazepril”, “described in” for “described”
as §2, with “candesartan” for “benazepril”, “described in” for “described”
as §2, with “telmisartan” for “benazepril”, “described in” for “described”
as §2, with “ibudilast and/or captopril” for “benazepril”, “compounds),” for “compound),”
as §2, with “enoximone and/or captopril” for “benazepril”, “compounds),” for “compound),”
as §2, with “ibudilast and/or candesartan” for “benazepril”, “compounds),” for “compound),”
as §2, with “baclofen and/or captopril” for “benazepril”, “compounds),” for “compound),”
Human neural stem cells (hNSCs) were isolated and grown in monolayer culture, plated, treated with varying concentrations of donepezil and/or captopril (test compounds), and stained with TUJ-1 antibody, as described above.

[9] = agent alone, percentage of neuronal positive control, basal media values subtracted
[10] = agent alone, FIG. 6-9, percentage of neuronal positive control, basal media values subtracted

mGluR3, sequence (Q14832 23-879): as above
mGluR2, sequence (Q14416 19-872): as the sequence (Q14416 19-872) above

EC50 [8, 9] [µM] | SMILES | effect on neuronal differentiation ([8]; agent alone) | also measured
 | NC1(C(=O)O)CCc2cc(P(=O)(O)O)ccc21 (racemic) [APICA, (RS)-1-amino-5-phosphonoindan-1-carboxylic acid] |  | IC50 [1]: ~30 µM; IC50 [2]: ~30 µM; activity against Group I or Group III receptors [3]: no appreciable activity
 | N[C@](CC1c2ccccc2Oc2ccccc21)(C(=O)O)[C@H]1C[C@@H]1C(=O)O [LY341495, (2S)-2-amino-2-(1S,2S-2-carboxycycloprop-1-yl)-3-(xanth-9-yl)propanoic acid] |  | activity against KA, AMPA, and NMDA iGlu receptors [4]: substantially inactive; activity against mGlu7 and mGlu8 [5]: antagonist activity
 | N[C@@]1(C(=O)O)CO[C@H]2[C@H](C(=O)O)[C@H]21 [LY379268, (−)-2-oxa-4-aminobicyclohexane-4,6-dicarboxylic acid] |  | EC50 [6]: < 0.01 µM; EC50 [7]: < 0.01 µM
13 | CC(=O)SC[C@@H](C)C(=O)N1CCC[C@H]1C(=O)N[C@@H](Cc1ccccc1)C(=O)O [alacepril, 1-(D-3-acetylthio-2-methylpropanoyl)-L-prolyl-L-phenylalanine] | promoted neuronal differentiation | 
3.2 | NCC(CC(=O)O)c1ccc(Cl)cc1 (stereo not shown) [baclofen] |  | 
 | CCOC(=O)[C@H](CCc1ccccc1)N[C@H]1CCc2ccccc2N(CC(=O)O)C1=O [benazepril, 2-[4-(1-ethoxycarbonyl-3-phenyl-propyl)amino-5-oxo-6-azabicyclo[5.4.0]undeca-7,9,11-trien-6-yl]acetic acid] | promoted neuronal differentiation | EC50 [8, 10]: 3.3 µM
2.2 | CCOc1nc2cccc(C(=O)O)c2n1Cc1ccc(-c2ccccc2-c2nnn[nH]2)cc1 [candesartan, 2-ethoxy-3-[[4-[2-(2H-tetrazol-5-yl)phenyl]phenyl]methyl]-3H-benzoimidazole-4-carboxylic acid] | promoted neuronal differentiation | EC50 [8, 10]: ~0.84 µM
3.8 | C[C@H](CS)C(=O)N1CCC[C@H]1C(=O)O [captopril, 1-[(2S)-3-mercapto-2-methylpropionyl]-1-proline] | promoted neuronal differentiation | 
 | COc1cc2c(cc1OC)C(=O)C(CC1CCN(Cc3ccccc3)CC1)C2 (stereo not shown) [donepezil] |  | EC50 [8]: 2 µM
0.5 | CCOC(=O)[C@H](CCc1ccccc1)N[C@@H](C)C(=O)N1CCC[C@H]1C(=O)O [enalapril, (S)-1-[N-[1-(ethoxycarbonyl)-3-phenylpropyl]-1-alanyl]-1-proline] | promoted neuronal differentiation | 
6.8 | CSc1ccc(C(=O)c2[nH]c(=O)[nH]c2C)cc1 [enoximone] |  | 
6.2 | CC(C)C(=O)c1c(C(C)C)nn2ccccc12 [ibudilast] |  | 
9.1 | NCCCC[C@H](N[C@@H](CCc1ccccc1)C(=O)O)C(=O)N1CCC[C@H]1C(=O)O [lisinopril, (S)-1-(N(sup 2)-(1-carboxy-3-phenylpropyl)-L-lysyl)-L-proline] | promoted neuronal differentiation | 
0.9 | CCCCc1nc(Cl)c(CO)n1Cc1ccc(-c2ccccc2-c2nnn[nH]2)cc1 [losartan, [2-butyl-5-chloro-3-[[4-[2-(2H-tetrazol-5-yl)phenyl]phenyl]methyl]-3H-imidazol-4-yl]methanol] | promoted neuronal differentiation | 
2.3 | COc1ccc(C2CNC(=O)C2)cc1OC1CCCC1 (stereo not shown) [rolipram] |  | 
0.06 | CCCc1nc2c(C)cc(-c3nc4ccccc4n3C)cc2n1Cc1ccc(-c2ccccc2C(=O)O)cc1 [telmisartan, 2-[4-[[4-methyl-6-(1-methylbenzoimidazol-2-yl)-2-propyl-benzoimidazol-1-yl]methyl]phenyl]benzoic acid] | promoted neuronal differentiation | EC50 [8, 10]: ~0.03 µM
16.4 | Cn1c(=O)c2[nH]cnc2n(C)c1=O [theophylline] |  | 
 | CCOC(=O)C(CCc1ccccc1)NC(C)C(=O)N1C(C(=O)O)CC2CCCCC21 (stereo not shown) [trandolapril, 1-[2-[(1-ethoxycarbonyl-3-phenyl-propyl)amino]propanoyl]-2,3,3a,4,5,6,7,7a-octahydroindole-2-carboxylic acid] | promoted neuronal differentiation | EC50 [8, 10]: ~35 µM
8.6 | CCCc1nc(C)c2c(=O)[nH]c(-c3cc(S(=O)(=O)N4CCN(CC)CC4)ccc3OCC)nn12 [vardenafil] |  | 

Source: patent US7858611B2, “Neurogenesis by modulating angiotensin” (BrainCells Inc., priority 2006, dated 2010)
